# Assay results as given in the RepoRT retention time repository (doi:10.1016/j.jhazmat.2019.121712).
# Assay: Thermo Scientific Acclaim RSLC 120 C18, 100 × 2.1 mm, 2.2 µm, 30 °C; A: 90% water + 10% methanol + 0.01% formic acid + 5 mM ammonium formate; B: methanol + 0.01% formic acid + 5 mM ammonium formate; gradient (min/%B) 0.1/1 3/39 14/99.9 16/99.9
# Settings: stereoisomer not certain
row,Structure (SMILES),LC retention time [min]
1,CCC1OC(=O)C(C)C(OC2CC(C)(OC)C(O)C(C)O2)C(C)C(OC2OC(C)CC(N(C)C)C2O)C(C)(O)CC(C)CN(C)C(C)C(O)C1(C)O (stereo not given),5.98
2,CNC(=O)ON=CC(C)(C)S(C)(=O)=O,3.75
3,C=CC=CCC1=C(C)C(OC(=O)C2C(C=C(C)C(=O)OC)C2(C)C)CC1=O (stereo not given),11.7
4,CC=C1CC(C)C(O)(CO)C(=O)OCC2=CCN3CCC(OC1=O)C23 (stereo not given),4.01
5,CC(=O)OC1C=CC2C3Cc4ccc(O)c5c4C2(CCN3C)C1O5 (stereo not given),3.75
6,O=C(c1cccc2ccccc12)c1cn(CCN2CCOCC2)c2ccccc12,9.88
7,COP(=S)(OC)Oc1ccc(C#N)cc1,8.27
8,O=c1cn[nH][nH]1,5.99
9,CC(N)Cc1ccc2occc2c1 (stereo not given),4.79
10,CNC(C)Cc1ccccc1OC (stereo not given),4.69
11,COC1(C)CC(c2ccccc2)c2c(c3ccccc3oc2=O)O1 (stereo not given),11.1
12,CSC(C)=NOC(=O)N(C)SN(C)C(=O)ON=C(C)SC,7.64
13,CCS(=O)(=O)CCn1c([N+](=O)[O-])cnc1C,3.86
14,COP(=S)(OC)Oc1ccc([N+](=O)[O-])cc1,9.24
15,O=C(c1cccc2ccccc12)c1cn(CC2CCCCC2)c2ccccc12,13
16,CCC(N)Cc1c[nH]c2ccccc12 (stereo not given),5.04
17,CCOc1cc(OP(=S)(OC)OC)nc(CC)n1,11
18,C=C1CC23CC1(O)CCC2C12C=CC(O)C(C)(C(=O)O1)C2C3C(=O)O (stereo not given),4.91
19,CC(O)C1C(=O)N2C(C(=O)O)=C(SC3CNC(C(=O)N(C)C)C3)C(C)C12 (stereo not given),10.6
20,CCCCCn1cc(C(=O)c2cccc3ccccc23)c2ccccc21,12.4
21,CCCCCn1cc(C(=O)c2ccc(OC)cc2)c2ccccc21,11.8
22,C#CCNC(C)Cc1ccccc1 (stereo not given),4.66
23,CC(=O)Nc1nnc(S(N)(=O)=O)s1,3.43
24,CC(C)N(CCc1c[nH]c2cccc(O)c12)C(C)C,4.34
25,CCCc1nn(C)c2c(=O)[nH]c(-c3cc(S(=O)(=O)N4CC(C)NC(C)C4)ccc3OCC)nc12 (stereo not given),7.6

# Continued, values first:
row,LC retention time [min],Structure (SMILES)
1,11.9,CCOc1cc(CC(=O)NC(CC(C)C)c2ccccc2N2CCCCC2)ccc1C(=O)O (stereo not given)
2,12.2,Cc1cccc(N(C)C(=S)Oc2ccc3ccccc3c2)c1
3,9.82,COc1ccc2cc(CCC(C)=O)ccc2c1
4,6.16,CN(C)CCOC(=O)C(c1ccccc1)C1(O)CCCC1 (stereo not given)
5,8.56,CCOC(=O)C(CCc1ccccc1)NC(C)C(=O)N1C(C(=O)O)CC2CCCC21 (stereo not given)
6,8.11,CNCCC(Oc1cccc2ccccc12)c1cccs1 (stereo not given)
7,11,CN(CC=CC#CC(C)(C)C)Cc1cccc2ccccc12
8,7.28,CCOc1ccccc1OC(c1ccccc1)C1CNCCO1 (stereo not given)
9,6.36,COCCOc1ccccc1S(=O)(=O)NC(=O)Nc1nc(OC)nc(OC)n1
10,5.12,CN(C)C(=O)Nc1ccccc1
11,8.52,CN(CC=Cc1ccccc1)Cc1cccc2ccccc12
12,5.33,C#CC[N+](C)([O-])C(C)Cc1ccccc1 (stereo not given)
13,4.75,COc1ncnc(NS(=O)(=O)c2ccc(N)cc2)c1OC
14,5.09,CN1C2CCC1CC(OC(=O)c1c[nH]c3ccccc13)C2 (stereo not given)
15,6.23,COc1cc(NS(=O)(=O)c2ccc(NC(C)=O)cc2)nc(OC)n1
16,8.79,Cc1oc(C)c(C(=O)Nc2ccccc2)c1C
17,8.18,COC=C(C(=O)O)c1ccccc1Oc1cc(Oc2ccccc2C#N)ncn1
18,8.31,CC(CN(C)C)CN1c2ccccc2CCc2ccccc21 (stereo not given)
19,3.43,CNS(=O)(=O)Cc1ccc2[nH]cc(CCN(C)C)c2c1
20,5.04,CCC12CCCN3CCc4c(n(c5ccccc45)C(O)(C(=O)OC)C1)C32 (stereo not given)
